The text below walks through data of ChEMBL document CHEMBL3091391, “An assay for human telomeric G-quadruplex DNA binding drugs” (Bioorg Med Chem Lett, 2013).

The species entered for assay [1] is Homo sapiens. Put plainly: Binding affinity to human d[AGGG(TTAGGG)3] telomeric G-quadruplex DNA by fluorescence-based assay.
The species entered for assay [2] is Homo sapiens. In words: Selectivity ratio of binding affinity for human d[AGGG(TTAGGG)3] telomeric G-quadruplex DNA in presence of sodium ions to binding affinity for human d[AGGG(TTAGGG)3] telomeric G-quadruplex DNA in presence of potassium ions.
Assay [3] can be described thus: Binding affinity to d(G4C4)2 duplex DNA (unknown origin) by fluorescence-based assay.
For assay [4], the species on record is Homo sapiens. In words: Binding affinity to human d[AGGG(TTAGGG)3] telomeric G-quadruplex DNA after 1 to 12 hrs by titrimetric analysis in presence of sodium ions.
The species entered for assay [5] is Homo sapiens. Put plainly: Binding affinity to human d[AGGG(TTAGGG)3] telomeric G-quadruplex DNA after 1 to 12 hrs by titrimetric analysis in presence of potassium ions.
Assay [6] is filed under the species Homo sapiens. In words: Binding affinity to human telomeric G-quadruplex DNA.

The structures appear in SMILES notation. The source made the active and inactive calls. The rule behind the calls is not given here.

As for `NC[C@@H]1O[C@H](O[C@H]2[C@@H](O)[C@H](O[C@@H]3[C@@H](O)[C@H](N)C[C@H](N)[C@H]3O[C@H]3O[C@H](CN)[C@@H](O)[C@H](O)[C@H]3N)O[C@@H]2CSCCNC(=S)NCc2ccc3c(c2)C(=O)c2ccccc2C3=O)[C@H](N)[C@@H](O)[C@@H]1O`, in the assay listed under Homo sapiens [1], the result was inactive. `CN1/C(=C/c2cc[n+](CCCCC(=O)NCCSC[C@H]3O[C@@H](O[C@@H]4[C@@H](O)[C@H](N)C[C@H](N)[C@H]4O[C@H]4O[C@H](CN)[C@@H](O)[C@H](O)[C@H]4N)[C@H](O)[C@@H]3O[C@H]3O[C@@H](CN)[C@@H](O)[C@H](O)[C@H]3N)c3ccccc23)Sc2ccccc21`: the Selectivity ratio in the assay listed under Homo sapiens [2] is 10. Further, in assay [3], the result was Active. In addition, the K is 9.6 ×10⁷ /M in the assay filed under Homo sapiens [4] and 9.3 ×10⁶ /M in the assay filed under Homo sapiens [5]. As to `NC[C@@H]1O[C@H](O[C@H]2[C@@H](O)[C@H](O[C@@H]3[C@@H](O)[C@H](N)C[C@H](N)[C@H]3O[C@H]3O[C@H](CN)[C@@H](O)[C@H](O)[C@H]3N)O[C@@H]2CSCCNC(=S)NCCNC(=S)NCc2ccc3c(c2)C(=O)c2ccccc2C3=O)[C@H](N)[C@@H](O)[C@@H]1O`, the outcome in the assay filed under Homo sapiens [1] was inactive. In the case of `NC[C@@H]1O[C@H](O[C@H]2[C@@H](O)[C@H](O[C@@H]3[C@@H](O)[C@H](N)C[C@H](N)[C@H]3O[C@H]3O[C@H](CN)[C@@H](O)[C@H](O)[C@H]3N)O[C@@H]2CNC(=S)NCCNC(=S)NCc2ccc3c(c2)C(=O)c2ccccc2C3=O)[C@H](N)[C@@H](O)[C@@H]1O`, in the assay listed under Homo sapiens [1], the result was inactive.

With `NC[C@@H]1O[C@H](O[C@H]2[C@@H](O)[C@H](O[C@@H]3[C@@H](O)[C@H](N)C[C@H](N)[C@H]3O[C@H]3O[C@H](CN)[C@@H](O)[C@H](O)[C@H]3N)O[C@@H]2CNC(=S)NCCCOCCCCOCCCNC(=S)NCc2ccc3c(c2)C(=O)c2ccccc2C3=O)[C@H](N)[C@@H](O)[C@@H]1O`, in the assay filed under Homo sapiens [1], the result was inactive.

On to `NC[C@@H]1O[C@H](O[C@H]2[C@@H](O)[C@H](O[C@@H]3[C@@H](O)[C@H](N)C[C@H](N)[C@H]3O[C@H]3O[C@H](CN)[C@@H](O)[C@H](O)[C@H]3N)O[C@@H]2CSCCNC(=S)NCCCNC(=S)NCc2ccc3c(c2)C(=O)c2ccccc2C3=O)[C@H](N)[C@@H](O)[C@@H]1O`, for which, in the assay filed under Homo sapiens [1], the outcome was inactive. For `NCC1O[C@H](O[C@H]2[C@@H](O)[C@H](O[C@@H]3[C@@H](O)[C@H](N)C[C@H](N)[C@H]3O[C@H]3O[C@H](CN)[C@@H](O)[C@H](O)[C@H]3N)O[C@@H]2CNC(=S)NCc2ccc3c(c2)C(=O)c2ccccc2C3=O)[C@H](N)[C@@H](O)[C@@H]1O` (single isomer, unassigned), the outcome in the assay listed under Homo sapiens [1] was inactive.

As to `NC[C@@H]1O[C@H](O[C@H]2[C@@H](O)[C@H](O[C@@H]3[C@@H](O)[C@H](N)C[C@H](N)[C@H]3O[C@H]3O[C@H](CN)[C@@H](O)[C@H](O)[C@H]3N)O[C@@H]2CNC(=S)Nc2ccc3c(c2)C(=O)c2ccccc2C3=O)[C@H](N)[C@@H](O)[C@@H]1O`, the result in the assay filed under Homo sapiens [1] was inactive. Regarding `NC[C@@H]1O[C@H](O[C@H]2[C@@H](O)[C@H](O[C@@H]3[C@@H](O)[C@H](N)C[C@H](N)[C@H]3O[C@H]3O[C@H](CN)[C@@H](O)[C@H](O)[C@H]3N)O[C@@H]2CSCCNC(=S)NCCCCCCCCCCNC(=S)NCc2ccc3c(c2)C(=O)c2ccccc2C3=O)[C@H](N)[C@@H](O)[C@@H]1O`, the outcome in the assay filed under Homo sapiens [1] was inactive. With `NC[C@@H]1O[C@H](O[C@H]2[C@@H](O)[C@H](O[C@@H]3[C@@H](O)[C@H](N)C[C@H](N)[C@H]3O[C@H]3O[C@H](CN)[C@@H](O)[C@H](O)[C@H]3N)O[C@@H]2CNC(=S)NCCCNC(=S)NCc2ccc3c(c2)C(=O)c2ccccc2C3=O)[C@H](N)[C@@H](O)[C@@H]1O`, the result in the assay listed under Homo sapiens [1] was inactive. Take `NC[C@@H]1O[C@H](O[C@H]2[C@@H](O)[C@H](O[C@@H]3[C@@H](O)[C@H](N)C[C@H](N)[C@H]3O[C@H]3O[C@H](CN)[C@@H](O)[C@H](O)[C@H]3N)O[C@@H]2CSCCNC(=S)Nc2ccc3c(c2)C(=O)c2ccccc2C3=O)[C@H](N)[C@@H](O)[C@@H]1O`: in the assay filed under Homo sapiens [1], the outcome was inactive. `NC[C@@H]1O[C@H](O[C@H]2[C@@H](O)[C@H](O[C@@H]3[C@@H](O)[C@H](N)C[C@H](N)[C@H]3O[C@H]3O[C@H](CN)[C@@H](O)[C@H](O)[C@H]3N)O[C@@H]2CSCCNC(=S)NCCCNC(=O)c2ccc3c(c2)C(=O)c2ccccc2C3=O)[C@H](N)[C@@H](O)[C@@H]1O` registered a Ka in the assay filed under Homo sapiens [6] of 1.25 ×10⁷ /M. For `NC[C@@H]1O[C@H](O[C@H]2[C@@H](O)[C@H](O[C@@H]3[C@@H](O)[C@H](N)C[C@H](N)[C@H]3O[C@H]3O[C@H](CN)[C@@H](O)[C@H](O)[C@H]3N)O[C@@H]2CSCCNC(=S)NCCCOCCCCOCCCNC(=S)NCc2ccc3c(c2)C(=O)c2ccccc2C3=O)[C@H](N)[C@@H](O)[C@@H]1O`, in the assay listed under Homo sapiens [1], the result was inactive. `NC[C@@H]1O[C@H](O[C@H]2[C@@H](O)[C@H](O[C@@H]3[C@@H](O)[C@H](N)C[C@H](N)[C@H]3O[C@H]3O[C@H](CN)[C@@H](O)[C@H](O)[C@H]3N)O[C@@H]2CNC(=S)NCCCCCCCCCCNC(=S)NCc2ccc3c(c2)C(=O)c2ccccc2C3=O)[C@H](N)[C@@H](O)[C@@H]1O`: in the assay listed under Homo sapiens [1], the outcome was inactive.
